Test results: patent publication US20220380368A1, “SPIROCYCLIC ANDROGEN RECEPTOR PROTEIN DEGRADERS” (THE REGENTS OF THE UNIVERSITY OF MICHIGAN, priority 2019, published 2022)
Changes are numbered by the printed parent chain. Read-outs that look alike come from different tables or passages of the source.

Tests used:
[1] = target: T1, AR protein (Homo sapiens, UniProt P10275); assay: Western blotting analysis of AR protein levels in VCaP cells, band quantification, DC50/DC90; type: cell-based; conditions: prostate cancer Vcap cells, 24 h treatment
T1 construct: endogenous in cells; host or cells: VCaP
T1 sequence (P10275 1-920): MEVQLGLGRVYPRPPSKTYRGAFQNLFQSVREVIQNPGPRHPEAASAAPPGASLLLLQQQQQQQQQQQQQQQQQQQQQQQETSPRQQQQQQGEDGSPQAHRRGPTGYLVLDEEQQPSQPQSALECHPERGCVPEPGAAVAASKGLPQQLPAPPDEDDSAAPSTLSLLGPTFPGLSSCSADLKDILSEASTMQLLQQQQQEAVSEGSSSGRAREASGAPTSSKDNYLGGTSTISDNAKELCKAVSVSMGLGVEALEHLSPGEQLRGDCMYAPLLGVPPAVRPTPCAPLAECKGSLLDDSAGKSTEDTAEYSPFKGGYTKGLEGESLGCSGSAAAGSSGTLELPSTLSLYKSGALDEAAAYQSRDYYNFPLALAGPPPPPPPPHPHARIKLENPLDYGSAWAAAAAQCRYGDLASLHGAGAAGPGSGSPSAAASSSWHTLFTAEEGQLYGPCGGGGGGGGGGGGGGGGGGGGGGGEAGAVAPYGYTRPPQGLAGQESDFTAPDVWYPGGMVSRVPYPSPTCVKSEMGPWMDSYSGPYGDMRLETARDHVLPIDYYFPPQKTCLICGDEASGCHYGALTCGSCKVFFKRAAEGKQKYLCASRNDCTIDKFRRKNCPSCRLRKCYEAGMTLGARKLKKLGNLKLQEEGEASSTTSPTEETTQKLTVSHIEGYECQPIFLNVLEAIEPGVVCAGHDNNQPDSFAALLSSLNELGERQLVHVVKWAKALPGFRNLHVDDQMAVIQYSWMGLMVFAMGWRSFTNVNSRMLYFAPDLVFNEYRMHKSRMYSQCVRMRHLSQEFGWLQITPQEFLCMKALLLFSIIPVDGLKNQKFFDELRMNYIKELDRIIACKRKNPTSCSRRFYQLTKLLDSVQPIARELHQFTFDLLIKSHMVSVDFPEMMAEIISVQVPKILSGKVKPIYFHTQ
How it was run: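 VCaP cells treated with compounds, lysed in RIPA and probed for AR by Western blot with GAPDH loading control. Band intensities normalised to GAPDH; DC50 from curve fit, DC90 calculated from DC50 and Hill slope via four-parameter equation.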

[2] = system: AR protein; assay: Western blotting analysis of AR protein levels in 22RV1 cells, band quantification, DC50/DC90; type: cell-based; conditions: prostate cancer 22RV1 cells, 24 h treatment
Description: (§1) The appropriate cell line, e.g., prostate cancer LNCaP, Vcap, or 22RV1 cell line, was treated with Compounds of the Disclosure as indicated. The treated cells were lysed with RIPA buffer. The AR level in the cell lysates was examined by western blotting and a specific AR antibody (ab194196, Abcam, Cambridge, Mass. 02139) with concentration of 1:20,000. GAPDH was used as a loading control.
(§2) Bands were quantified with ImageJ software. The relative numbers of each band obtained from normalization with its corresponding GAPDH level were compared with Prism 8 software. The DC50 values were produced from Prism 8, and the DC90 values were calculated with an equation=Bottom+(Top−Bottom)/(1+10^((Log EC50−X)*HillSlope) based on DC50 and Hillslope values.

[3] = target: T2, AR protein (Homo sapiens, UniProt P10275, T878A); assay: Western blotting analysis of AR protein levels in LNCaP cells, band quantification, DC50/DC90; type: cell-based; conditions: prostate cancer LNCaP cells, 24 h treatment
T2 construct: endogenous in cells; host or cells: LNCaP
T2 sequence (P10275 1-920 T878A): T1 sequence (P10275 1-920) with T878A
Description: as §1, §2

[4] = Mouse PK studies after oral and IV dosing; type: in vivo
Description: The pharmacokinetics of representative Compounds of the Disclosure were determined after oral and IV dosing at the concentrations indicated in mouse (Table 7). […] The vehicles used in these studies are either (i) 10% PEG400+90% PBS (adjusted to pH to 8.0 by 0.5 N NaOH); or (ii) 100% PEG200.

[5] = system: AR protein; assay: AR degradation in MDA-MB-453 cells (Western blotting); type: cell-based; conditions: 24 hr treatment
Description: as §1, §2

[6] = system: AR-amplified prostate cancer cells; conditions: cited from earlier work
[7] = calculated from DC50 and Hillslope

Compound `C[C@H]1CC2(CCN(c3ccc(C(=O)N4CCC(N5Cc6cc7c(cc6C5)C(=O)N(C5CCC(=O)NC5=O)C7=O)CC4)cc3)CC2)CN1c1ccc(C#N)c(Cl)c1` (stereo partly drawn) [Cpd. No. 307, 2-chloro-4-((3S)-8-(4-(4-(6-(2,6-dioxopiperidin-3-yl)-5,7-dioxo-3,5,6,7-tetrahydropyrrolo[3,4-f]isoindol-2(1H)-yl)piperidine-1-carbonyl)phenyl)-3-methyl-2,8-diazaspiro[4.5]decan-2-yl)benzonitrile] has a DC90 [1, 7] of 0.199 nM, a DC50 ([1]; read-out: DC50) of 0.046 nM and a DC50 [2] of 0.9 nM. For the same compound, the DC90 [2, 7] was 3.1 nM, the DC90 [3, 7] was 0.11 nM and the DC50 ([3]; read-out: DC50) was 0.082 nM. For the same compound, the F ([4]; PO 5 mg/kg vs IV 2 mg/kg) was 67%, the AUC(0-t) ([4]; in vivo, iv, 2 mg/kg, IV, dose 2 mg/kg, read-out: IV AUC(0 − t)) was 50.5 µg·h/mL and the clearance ([4]; in vivo, iv, 2 mg/kg, IV, dose 2 mg/kg, read-out: IV Cl (converted)) was 0.04 L/h/kg. The half-life ([4]; in vivo, iv, 2 mg/kg, IV, dose 2 mg/kg, read-out: IV T1/2 (converted)) was 4.34 h, the Vd ([4]; in vivo, iv, 2 mg/kg, IV, dose 2 mg/kg, read-out: IV VSS) was 0.23 L/kg and the Cmax ([4]; in vivo, po, 5 mg/kg) was 9.12 µg/mL. The Tmax ([4]; in vivo, po, 5 mg/kg) was 2 h, the AUC(0-t) ([4]; in vivo, po, 5 mg/kg, PO, dose 5 mg/kg, read-out: PO AUC(0 − t)) was 85.2 µg·h/mL and the half-life ([4]; in vivo, po, 5 mg/kg, PO, dose 5 mg/kg, read-out: PO T1/2 (converted)) was 4.4 h.

In the case of `N#Cc1ccc(N2CC3(CN(C(=O)c4ccc(C5CCN(CC6CCN(c7ccc8c(c7)C(=O)N(C7CCC(=O)NC7=O)C8=O)CC6)CC5)cc4)C3)C2)cc1Cl` (centres unmarked) [compound 481], the “degradation at 10 nM” value [5] is reported as “B (>50% degradation but <90% (24 hr treatment))” and the “degradation at 100 nM” value [5] is reported as “A (>90% degradation (24 hr treatment))”.

In the case of `Cc1ncsc1-c1ccc(CNC(=O)C2C[C@@H](O)CN2C(=O)[C@@H](NC(=O)COCCCCOc2ccc(-c3ccc(N4C(=S)N(c5ccc(C#N)c(C(F)(F)F)c5)C(=O)C4(C)C)cc3)cc2)C(C)(C)C)cc1` (stereo partly drawn) [ARCC-4, (4R)-1-((S)-2-(2-(4-((4′-(3-(4-cyano-3-(trifluoromethyl)phenyl)-5,5-dimethyl-4-oxo-2-thioxoimidazolidin-1-yl)-[1,1′-biphenyl]-4-yl)oxy)butoxy)acetamido)-3,3-dimethylbutanoyl)-4-hydroxy-N-(4-(4-methylthiazol-5-yl)benzyl)pyrrolidine-2-carboxamide], the “inducing apoptosis and inhibiting proliferation, compared with enzalutamide” value [6] is listed as “more potent and effective than enzalutamide”.

For `N#Cc1ccc(OC2CC3(C2)CN(C(=O)c2ccc(C4CCN(CC5CCN(c6ccc7c(c6)C(=O)N(C6CCC(=O)NC6=O)C7=O)CC5)CC4)cc2)C3)cc1Cl` (centres unmarked) [compound 480], the “degradation at 10 nM” value [5] was “B (>50% degradation but <90% (24 hr treatment))” and the “degradation at 100 nM” value [5] was “A (>90% degradation (24 hr treatment))”.
